Laboratory results: US7943628B2, “Pyrimidine derivatives” (Pfizer Limited, priority 2005, dated 2011)

What follows are molecules tested against T1, histamine H4 receptor (Homo sapiens, UniProt Q9H3N8) (assay: H4 binding, method 1 ([3H]-histamine filtration binding on CHO cell membranes)). Conditions: 1.5 h.
T1 construct: expressed in transfected cells; host or cells: CHO cells
Summary of the method: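 Membranes from CHO cells expressing human H4 receptor (20-35 μg/well) incubated 90 min at room temperature with 3 nM [3H]-histamine in 50 mM Tris-HCl pH 7.4, ± competitor. Bound label separated by filtration on PEI-soaked GF/B filters and counted by scintillation; non-specific binding with 10 μM JNJ7777120.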

T1 sequence (Q9H3N8 whole entry): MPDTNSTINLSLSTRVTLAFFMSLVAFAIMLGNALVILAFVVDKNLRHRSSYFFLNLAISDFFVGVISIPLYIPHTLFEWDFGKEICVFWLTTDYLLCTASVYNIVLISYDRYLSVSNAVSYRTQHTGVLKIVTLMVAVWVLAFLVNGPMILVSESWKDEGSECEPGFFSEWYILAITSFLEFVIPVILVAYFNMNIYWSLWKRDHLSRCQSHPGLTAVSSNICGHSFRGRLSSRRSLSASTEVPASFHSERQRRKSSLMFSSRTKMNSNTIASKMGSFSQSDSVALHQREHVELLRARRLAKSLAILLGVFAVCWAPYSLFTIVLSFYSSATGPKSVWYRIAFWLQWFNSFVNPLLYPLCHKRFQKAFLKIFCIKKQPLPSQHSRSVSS

Q: For `CNC1CN(c2cc(N3CCOCC3)nc(N)n2)C1` [Example 268, 4-[3-(Methylamino)azetidin-1-yl]-6-morpholin-4-ylpyrimidin-2-amine], which inhibition at 10 µM is on record?
A: 16%

Q: Which inhibition at 10 µM does the source give for `CC(C)(C)CCNc1cc(N[C@H]2CCN(Cc3ccccc3)C2)ncn1` [Example 289, N-[(3S)-1-Benzylpyrrolidin-3-yl]-N′-(3,3-dimethylbutyl)pyrimidine-4,6-diamine] here?
A: 44%

Q: For `c1nc(NC[C@@H]2CCCO2)cc(N[C@H]2CCNC2)n1` [Example 290, N-[(3S)-Pyrrolidin-3-yl]-N′-[(2S)-tetrahydrofuran-2-ylmethyl]pyrimidine-4,6-diamine], which inhibition at 10 µM is on record?
A: 24%

Q: Which inhibition at 20 µM does the source give for `CNC1CCCN(c2cc(NCC3CC3)nc(N)n2)C1` (centres unmarked) [Example 294, N^4-(Cyclopropylmethyl)-6-[3-(methylamino)piperidin-1-yl]pyrimidine-2,4-diamine] here?
A: 91%

Q: With `CC(C)(C)CNc1cc(N2C[C@H]3C[C@@]3(N)C2)ncn1` [Example 297, (1S,5R)-3-{6-[(2,2-Dimethylpropyl)amino]pyrimidin-4-yl}-3-azabicyclo[3.1.0]hexan-1-amine] as the molecule, how does the inhibition at 10 µM read?
A: 30%

Q: `CCN(CC)C1CCN(c2cc(NCC(C)(C)C)ncn2)C1` (centres unmarked) [Example 302, 6-[3-(Diethylamino)pyrrolidin-1-yl]-N-(2,2-dimethylpropyl)pyrimidin-4-amine] was tested. Which inhibition at 10 µM did it give?
A: 20%

Q: How did the inhibition at 10 µM turn out when `CC(C)(C)CNc1cc(N2CCN(C3CNC3)CC2)ncn1` [Example 303, 6-(4-Azetidin-3-ylpiperazin-1-yl)-N-(2,2-dimethylpropyl)pyrimidin-4-amine] was run?
A: 38%

Q: With `CCN(CC)CCN(C)c1cc(NCC2CC2)ncn1` [Example 306, N′-(Cyclopropylmethyl)-N-[2-(diethylamino)ethyl]-N-methylpyrimidine-4,6-diamine] as the molecule, how does the inhibition at 10 µM read?
A: 18%

Q: How did the inhibition at 10 µM turn out when `CC(C)(C)CCNc1cc(N2CCN(CCO)CC2)ncn1` [Example 307, 2-(4-{6-[(3,3-Dimethylbutyl)amino]pyrimidin-4-yl}piperazin-1-yl)ethanol] was run?
A: 24%

Same assay, conditions: H4 binding, method 1; Ki calculated from IC50 (Cheng-Prussoff)

Q: How did the Ki turn out when `CNC1CN(c2cc(N3CCOC[C@H]3C)nc(N)n2)C1` [Example 263, 4-[3-(Methylamino)azetidin-1-yl]-6-[(3R)-3-methylmorpholiN^4-yl]pyrimidin-2-amine] was run?
A: 626 nM

Q: How did the Ki turn out when `CCCNc1cc(N2CCC(C)(N)C2)nc(N)n1` (centres unmarked) [Example 264, 6-(3-Amino-3-methylpyrrolidin-1-yl)-N^4-propylpyrimidine-2,4-diamine] was run?
A: 704 nM

Q: How did the Ki turn out when `CCNc1cc(N2CCC(C)(N)C2)nc(N)n1` (centres unmarked) [Example 265, 6-(3-Amino-3-methylpyrrolidin-1-yl)-N^4-ethylpyrimidine-2,4-diamine] was run?
A: 705 nM

Q: Which Ki does the source give for `CCCNc1cc(N2CCC(N)CC2)nc(N)n1` [Example 266, 6-(4-Aminopiperidin-1-yl)-N^4-propylpyrimidine-2,4-diamine] here?
A: 708 nM

Q: How did the Ki turn out when `C[C@@H]1CN(c2cc(NCc3cccc(F)c3)nc(N)n2)CCN1` [Example 267, N^4-(3-Fluorobenzyl)-6-[(3R)-3-methylpiperazin-1-yl]pyrimidine-2,4-diamine] was run?
A: 715 nM

Q: With `Nc1nc(NC2CC2)cc(N2CCC(N)CC2)n1` [Example 269, 6-(4-Aminopiperidin-1-yl)-N^4-cyclopropylpyrimidine-2,4-diamine] as the molecule, how does the Ki read?
A: 839 nM

Q: How did the Ki turn out when `CN[C@@H]1CCN(c2cc(NCc3c(F)cccc3F)nc(N)n2)C1` [Example 271, N^4-(2,6-Difluorobenzyl)-6-[(3R)-3-(methylamino)pyrrolidin-1-yl]pyrimidine-2,4-diamine] was run?
A: 870 nM

Q: For `CN[C@@H]1CCN(c2cc(NCc3cccc(F)c3F)nc(N)n2)C1` [Example 272, N^4-(2,3-Difluorobenzyl)-6-[(3R)-3-(methylamino)pyrrolidin-1-yl]pyrimidine-2,4-diamine], which Ki is on record?
A: 901 nM

Q: How did the Ki turn out when `CN[C@@H]1CCN(c2cc(NCc3cc(F)cc(F)c3)nc(N)n2)C1` [Example 273, N^4-(3,5-Difluorobenzyl)-6-[(3R)-3-(methylamino)pyrrolidin-1-yl]pyrimidine-2,4-diamine] was run?
A: 950 nM

Q: Which Ki does the source give for `CC(C)(C)CCNc1cc(N[C@H]2CCN(Cc3ccc(CO)o3)C2)ncn1` [Example 274, (5-{[(3S)-3-({6-[(3,3-Dimethylbutyl)amino]pyrimidin-4yl}amino)pyrrolidin--1-yl]methyl}-2-furyl)methanol] here?
A: 1070 nM

Q: How did the Ki turn out when `CN[C@@H]1CCN(c2cc(N3CC(F)(F)C3)nc(N)n2)C1` [Example 275, 4-(3,3-Difluoroazetidin-1-yl)-6-[(3R)-3-(methylamino)pyrrolidin-1-yl]pyrimidin-2-amine] was run?
A: 1160 nM

Q: For `CN[C@@H]1CCN(c2cc(NCc3ccc(F)c(F)c3)nc(N)n2)C1` [Example 277, N^4-(3,4-Difluorobenzyl)-6-[(3R)-3-(methylamino)pyrrolidin-1-yl]pyrimidine-2,4-diamine], which Ki is on record?
A: 1230 nM

Q: Which Ki does the source give for `CNC1CCCN(c2cc(NCC(C)C)nc(N)n2)C1` (centres unmarked) [Example 278, N^4-Isobutyl-6-[3-(methylamino)piperidin-1-yl]pyrimidine-2,4-diamine] here?
A: 1260 nM

Q: For `CC(C)(C)CCNc1cc(N2CCCNCC2)ncn1` [Example 280, 6-(1,4-Diazepan-1-yl)-N-(3,3-dimethylbutyl)pyrimidin-4-amine], which Ki is on record?
A: 1430 nM

Q: `c1ccc(CNc2cc(N[C@H]3CCNC3)ncn2)cc1` [Example 281, N-Benzyl-N′-[(3S)-pyrrolidin-3-yl]pyrimidine-4,6-diamine] was tested. Which Ki did it give?
A: 1550 nM

Q: With `CN[C@@H]1CCN(c2cc(N3CCOCC3)nc(N)n2)C1` [Example 282, 4-[(3R)-3-(Methylamino)pyrrolidin-1-yl]-6-morpholin-4-ylpyrimidin-2-amine] as the molecule, how does the Ki read?
A: 1660 nM

Q: For `Nc1nc(NCC2CC2)cc(N2CCC(N)CC2)n1` [Example 283, 6-(4-Aminopiperidin-1-yl)-N^4-(cyclopropylmethyl)pyrimidine-2,4-diamine], which Ki is on record?
A: 1700 nM

Q: Which Ki does the source give for `CNc1cc(N2CCC(N)CC2)nc(N)n1` [Example 284, 6-(4-Aminopiperidin-1-yl)-N^4-methylpyrimidine-2,4-diamine] here?
A: 1720 nM

Q: For `c1nc(NCC2CC2)cc(N2CCNCC2)n1` [Example 285, N-(Cyclopropylmethyl)-6-piperazin-1-ylpyrimidin-4-amine], which Ki is on record?
A: 1800 nM

Q: Which Ki does the source give for `CN[C@@H]1CCN(c2cc(NC(C)C)nc(N)n2)C1` [Example 286, N^4-lsopropyl-6-[(3R)-3-(methylamino)pyrrolidin-1-yl]pyrimidine-2,4-diamine] here?
A: 1940 nM

Q: How did the Ki turn out when `CC(C)(C)CNc1cc(N2CC(N3CCOCC3)C2)nc(N)n1` [Example 287, N^4-(2,2-Dimethylpropyl)-6-(3-morpholin-4-ylazetidin-1-yl)pyrimidine-2,4-diamine] was run?
A: 2000 nM

Q: Which Ki does the source give for `CN1CCCC(Nc2cc(NCCC(C)(C)C)ncn2)C1` (centres unmarked) [Example 288, N-(3,3-Dimethylbutyl)-N′-(1-methylpiperidin-3-yl)pyrimidine-4,6-diamine] here?
A: 2400 nM

Q: With `CC(C)(C)CCNc1cc(N2CCC(N)C2)ncn1` (centres unmarked) [Example 292, 6-(3-Aminopyrrolidin-1-yl)-N-(3,3-dimethylbutyl)pyrimidin-4-amine] as the molecule, how does the Ki read?
A: 2590 nM

Q: With `CN1CCN(c2cc(N3CCOCC3)ncn2)CC1` [Example 293, 4-[6-(4-Methylpiperazin-1-yl)pyrimidin-4-yl]morpholine] as the molecule, how does the Ki read?
A: 3040 nM

Q: With `CNC1CN(c2cc(N3CCCCC3)nc(N)n2)C1` [Example 295, 4-[3-(Methylamino)azetidin-1-yl]-6-piperidin-1-ylpyrimidin-2-amine] as the molecule, how does the Ki read?
A: 3180 nM

Q: Which Ki does the source give for `CN1CC[C@H](Nc2cc(NCCC(C)(C)C)ncn2)C1` [Example 296, N-(3,3-Dimethylbutyl)-N′-[(3S)-1-methylpyrrolidin-3-yl]pyrimidine-4,6-diamine] here?
A: 3300 nM

Same assay, conditions: at 3.16 μM

Q: Which “Method 1, % at 3.16 μM” value does the source give for `CNC1CN(c2cc(NCC3CC3)nc(NCC3CC3)n2)C1` [Example 276, N,N′-Bis(cyclopropylmethyl)-6-[3-(methylamino)azetidin-1-yl]pyrimidine-2,4-diamine] here?
A: 14% at 3.16 μM

Same assay, conditions: at 10 μM

Q: For `CN(C)C1[C@H]2CN(c3cc(NCCC(C)(C)C)ncn3)C[C@@H]12` (stereo partly drawn) [Example 300, (1R*,5S*,6s*)-3-{6-[(3,3-Dimethylbutyl)amino]pyrimidin-4-yl}-N,N-dimethyl-3-azabicyclo[3.1.0]hexan-6-amine], which “Method 1, % at 10 μM” value is on record?
A: 35% at 10 μM

Q: With `CN[C@H]1[C@@H]2CN(c3cc(NCCC(C)(C)C)nc(N)n3)C[C@@H]21` [Example 309, N^4-(3,3-Dimethylbutyl)-6-[(1R,5S,6s)-6-(methylamino)-3-azabicyclo[3.1.0]hex-3-yl]pyrimidine-2,4-diamine] as the molecule, how does the “Method 1, % at 10 μM” value read?
A: 26% at 10 μM

Same assay, conditions: top dose 6.3 μM

Q: With `CN[C@@H]1CCN(c2ncnc(NCC3CC3)c2C)C1` [Example 291, N-(Cyclopropylmethyl)-5-methyl-6-[(3R)-3-(methylamino)pyrrolidin-1-yl]pyrimidin-4-amine] as the molecule, how does the “Method 1, activity at top dose (6.3 μM)” value read?
A: No activity at top

Same assay, conditions: top dose 10 μM

Q: Which “Method 1, activity at top dose (10 μM)” value does the source give for `CNC1(C)CN(c2cc(NCCC(C)(C)C)nc(N)n2)C1` [Example 298, N^4-(3,3-Dimethylbutyl)-6-[3-methyl-3-(methylamino)azetidin-1-yl]pyrimidine-2,4-diamine] here?
A: No activity at top

Q: With `Cn1ccnc1CN1CCN(c2cc(NCCC(C)(C)C)ncn2)CC1` [Example 299, N-(3,3-Dimethylbutyl)-6-{4-[(1-methyl-1H-imidazol-2-yl)methyl]piperazin-1-yl}pyrimidin-4-amine] as the molecule, how does the “Method 1, activity at top dose (10 μM)” value read?
A: No activity at top

Q: `CC(C)(C)CCNc1cc(N2CCC(N3CCCC3)CC2)ncn1` [Example 301, N-(3,3-Dimethylbutyl)-6-(4-pyrrolidin-1-ylpiperidin-1-yl)pyrimidin-4-amine] was tested. Which “Method 1, activity at top dose (10 μM)” value did it give?
A: No activity at top

Q: For `c1nc(NCC2CC2)cc(N2CCN(C3CCCCC3)CC2)n1` [Example 305, 6-(4-Cyclohexylpiperazin-1-yl)-N-(cyclopropylmethyl)pyrimidin-4-amine], which “Method 1, activity at top dose (10 μM)” value is on record?
A: No activity at top

Q: For `c1nc(NCC2CC2)cc(N2CCN(C3CNC3)CC2)n1` [Example 308, 6-(4-Azetidin-3-ylpiperazin-1-yl)-N-(cyclopropylmethyl)pyrimidin-4-amine], which “Method 1, activity at top dose (10 μM)” value is on record?
A: No activity at top
